Test results published in patent US20260284087A1, “USES OF CANNABIDIOL (CBD) AND ADVANCED METABOLIC SYNDROME” (THE REGENTS OF THE UNIVERSITY OF CALIFORNIA, priority 2022, published 2026).

Columns and labels:
[1] = test system: Otsuka Long-Evans Tokushima Fatty (OLETF) rats; experiment: CBD effect on brown adipose tissue loss in OLETF rats with progressive MetS; type: in vivo, rat; conditions: 15-week-old OLETF rats, 200 mg CBD/kg oral gavage for 5 weeks; p<0.05; BAT estimated from 2-dimensional images (surface area)
Description: (§1) To assess the effects of a CBD on BAT loss associated with progressive MetS, a cohort of 15-week-old Otsuka Long-Evans Tokushima Fatty (OLETF) rats were administered 200 mg CBD/kg by oral gavage for 5 weeks. Animals were fed ad libitum and monitored in metabolic cages alongside vehicle-treated OLETF and lean strain control Long-Evans Tokushima Otsuka (LETO) rats. Brown adipose tissue content was estimated from 2-dimensional images to quantify surface area. The Otsuka Long-Evans Tokushima Fatty (OLETF) rat is a monogenic model of diet-induced obesity accelerated by a mutation in the CCK receptor. […] At >40 weeks of age, OLETF rats suffer from severe metabolic dysfunction and therefore serve as a model of aged, severe MetS.

[2] = test system: Otsuka Long-Evans Tokushima Fatty (OLETF) rats; experiment: Plasma metabolomics in CBD-treated OLETF rats; type: in vivo, rat; conditions: OLETF vs. CBD, 200 mg CBD/kg oral gavage for 5 weeks, p<0.0001
From the text: FIGS. 2A-2C CBD increases BAIBA. A) Metabolomic map showing metabolites with p<0.05 after Student's t-test, representing mean plasma peak intensity fold-changes between groups in metabolites with q<0.2, for OLETF vs. CBD, B) top 5 metabolites, associated pathway and change directionality listed by lowest p-value for OLETF vs. CBD and C) raw mean peak area of BAIBA. *p<0.05 compared to LETO and †p<0.05 compared to OLETF by ANOVA with Tukey's HSD or student's t-test.
as §1

C=C(C)[C@@H]1CCC(C)=C[C@H]1c1c(O)cc(CCCCC)cc1O [CBD, Cannabidiol]
BAT masses preserved (of BAT lost in OLETF control) [1]: 55% | increase in ß-aminoisobutyric acid (BAIBA) [2]: 2.1 fold
